# What was measured:
# [1] = tested on: NCI-H2052 mesothelioma cell line; assay: Inhibition of malignant mesothelioma tumor cell growth (EdU proliferation); assay type: cell-based; details: NF2 mutated cell line, 0.1-30 μM, FIG. 1
# Protocol: (§1) The tumor cell growth inhibitory activity of the YAP-TEAD interaction inhibitors was evaluated in NCI-H2052 mesothelioma cell line harboring a NF2 mutation. This cell line was selected based on its mutational status and the ability of a siRNA directed against YAP, TAZ or TEAD1-4 to inhibit cell proliferation. The nuclear localization of YAP at confluence was also taken into account. Based on these observations we were able to classify several “YAP dependent cells” where YAP is clearly nuclear and in which a cell growth inhibition is observed by using siRNA (NCI-H2052, SKOV-3, ACHN, A549) and the “YAP independent cells” where YAP is preferentially located in the cytoplasm and in which no inhibition of cell growth is observed by using a siRNA (SW620, Met-5a). […] After one day growth in the starvation medium, cells were incubated with compounds. The starting concentration was 30 μM and serial dilutions in DMSO and medium were performed until 0.1 μM to achieve a final DMSO concentration of 0.5%. The cells were then allowed to grow for 3 days, and then, EdU (Invitrogen, Molecular Probe) was added in each well at a final concentration of 10 μM and the cells were returned to the incubator for additional 24 h. Starvation medium was removed and 100 μl of PFA 4% containing Hoechst dye was adding in each well to fix the cells. Plates were then incubated at rt for 15 minutes, washed twice with PBS and the cells were permeabilized by adding 100 μl per well of triton-100 containing 0.3% BSA. After 20 minutes cells were washed with PBS and the EdU detection was performed according to the instructions of the manufacturer. Image acquisition was performed using the ImageXpress Micro and analysed using the MetaXpress software (Molecular Device).
# (§2) Results were expressed as a percent of inhibition (%) of the cell proliferation values obtained with 0.5% DMSO treatment alone. The cellular response was determined by fitting the concentration response curves using a 3 parameter curve fit equation and determining the concentration that inhibited cell growth between 50% and 100%.
# [2] = tested on: Met5A cell line; assay: Cell proliferation in YAP-independent cell line (EdU); assay type: cell-based; details: FIG. 1
# Protocol: as §1, §2
# [3] = target: T1, YAP-TEAD interaction (full length human TEAD1-Gal4 fusion, full length YAP mutant S127A, S397A) (UniProt P04386+P28347); assay: Cell-based TEAD-GAL4 transactivation assay (luciferase reporter, HEK293); details: HEK293 cells, compounds 0.1 μM to 30 μM, 24 h, concentration that inhibited the luciferase activity by 50%
# T1 construct: The TEAD1 construct was prepared by cloning the full length human TEAD1 cDNA; expressed in transfected cells; host or cells: HEK293 GripTite 293 MSR (Invitrogen R795-07), transiently transfected with pSG5_CMV plasmids
# T1 sequence (P04386+P28347 fused, stated change not applied): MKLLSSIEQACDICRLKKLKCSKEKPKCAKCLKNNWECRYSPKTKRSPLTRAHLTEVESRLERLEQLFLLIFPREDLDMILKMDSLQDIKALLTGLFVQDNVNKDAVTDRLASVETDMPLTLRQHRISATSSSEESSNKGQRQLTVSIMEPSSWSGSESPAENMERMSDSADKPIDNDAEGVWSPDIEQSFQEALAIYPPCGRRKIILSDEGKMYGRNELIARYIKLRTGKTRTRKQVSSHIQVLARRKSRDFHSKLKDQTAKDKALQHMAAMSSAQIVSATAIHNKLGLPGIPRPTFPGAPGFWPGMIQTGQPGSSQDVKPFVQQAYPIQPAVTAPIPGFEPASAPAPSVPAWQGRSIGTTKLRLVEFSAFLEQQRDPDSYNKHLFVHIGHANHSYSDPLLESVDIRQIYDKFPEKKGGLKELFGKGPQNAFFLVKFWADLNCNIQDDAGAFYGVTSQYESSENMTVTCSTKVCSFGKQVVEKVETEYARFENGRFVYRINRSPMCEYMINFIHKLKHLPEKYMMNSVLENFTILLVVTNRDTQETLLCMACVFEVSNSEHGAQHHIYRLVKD
# In short: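 HEK293 cells transiently transfected with Gal4-DBD–full-length human TEAD1, full-length YAP S127A/S397A and a 5×GAL4-RE–TK luciferase reporter (YAP/TEAD 10:1); p53–Gal4/SV40 large T pair as counter-screen. Compounds 0.1–30 µM semi-log, added 6 h post-transfection for 24 h; IC50 from 3-parameter fit of luminescence.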
SMILES,NCI-H2052 mesothelioma cell proliferation [1],effect on proliferation of Met5A cell line [2],IC50 [3]
"CN(/N=C/c1ccc2[nH]c(=O)n(C3CCC3)c2c1)C1=NS(=O)(=O)c2ccccc21 [Ex 28, 3-cyclobutyl-5-[(E)-[(1,1-dioxo-1,2-benzothiazol-3-yl)-methyl-hydrazono]methyl]-1H-benzimidazol-2-one]",inhibited NCI-H2052 mesothelioma cell proliferation,without showing any effect,3.06 µM
"COc1cc(/C=N/N(C)C2=NS(=O)(=O)c3cc(B4OC(=O)CN(C)CC(=O)O4)ccc32)ccc1F [Ex 68, 2-[3-[[(E)-(4-fluoro-3-methoxy-phenyl)methyleneamino]-methyl-amino]-1,1-dioxo-1,2-benzothiazol-6-yl]-6-methyl-1,3,6,2-dioxazaborocane-4,8-dione]",inhibited NCI-H2052 mesothelioma cell proliferation,without showing any effect,4.5 µM

# From patent publication US20200115353A1, “NEW COMPOUNDS INHIBITORS OF THE YAP/TAZ-TEAD INTERACTION AND THEIR USE IN THE TREATMENT OF MALIGNANT MESOTHELIOMA” (INVENTIVA, priority 2017, published 2020)
